Data: ChEMBL document CHEMBL2413056, “Adipogenetic effects of retrofractamide A derivatives in 3T3-L1 cells” (Bioorg Med Chem Lett, 2013)
The source made the active and inactive calls. The rule behind the calls is not given here.

Legend:
[1] = Cytotoxicity against mouse 3T3L1 cells assessed as cell viability at 30 uM by CCK8 assay relative to control; format: cell-based; settings: 3T3-L1 cells, read-out: Activity
3T3-L1 [2] = assay: Adipogenetic activity in mouse 3T3L1 cells assessed as increase in triglyceride level at 30 uM relative to control; format: functional
3T3-L1 [3] = assay: Adipogenetic activity in mouse 3T3L1 cells assessed as increase in triglyceride level at 10 uM relative to control; format: functional
[4] = Cytotoxicity against mouse 3T3L1 cells assessed as cell viability at 10 uM by CCK8 assay relative to control; format: cell-based; settings: 3T3-L1 cells, read-out: Activity
[5] = Cytotoxicity against mouse 3T3L1 cells assessed as cell viability at 3 uM by CCK8 assay relative to control; format: cell-based; settings: 3T3-L1 cells, read-out: Activity
[6] = Cytotoxicity against mouse 3T3L1 cells assessed as cell viability at 1 uM by CCK8 assay relative to control; format: cell-based; settings: 3T3-L1 cells, read-out: Activity
[7] = Cytotoxicity against mouse 3T3L1 cells assessed as cell viability at 0.3 uM by CCK8 assay relative to control; format: cell-based; settings: 3T3-L1 cells, read-out: Activity
3T3-L1 [8] = assay: Increase of 2-deoxyglucose uptake in mouse 3T3L1 cells using 2-deoxy-D-(2,6-3H)-glucose at 1 uM after 2 hrs by liquid scintillation counting; format: functional, cell-based
3T3-L1 [9] = assay: Increase of C/EBPdelta mRNA expression in mouse 3T3L1 cells at 30 uM by RT-PCR analysis relative to beta-actin mRNA level; format: functional
3T3-L1 [10] = assay: Increase of C/EBPbeta mRNA expression in mouse 3T3L1 cells at 30 uM by RT-PCR analysis relative to beta-actin mRNA level; format: functional
3T3-L1 [11] = assay: Increase of C/EBPalpha mRNA expression in mouse 3T3L1 cells at 30 uM by RT-PCR analysis relative to beta-actin mRNA level; format: functional
3T3-L1 [12] = assay: Increase of aP2 mRNA expression in mouse 3T3L1 cells at 30 uM by RT-PCR analysis relative to beta-actin mRNA level; format: functional
3T3-L1 [13] = assay: Increase of GLUT4 mRNA expression in mouse 3T3L1 cells at 30 uM by RT-PCR analysis relative to beta-actin mRNA level; format: functional
3T3-L1 [14] = assay: Increase of PPARgamma2 mRNA expression in mouse 3T3L1 cells at 30 uM by RT-PCR analysis relative to beta-actin mRNA level; format: functional
3T3-L1 [15] = assay: Increase of adiponectin mRNA expression in mouse 3T3L1 cells at 30 uM by RT-PCR analysis relative to beta-actin mRNA level; format: functional
3T3-L1 [16] = assay: Increase of C/EBPdelta mRNA expression in mouse 3T3L1 cells at 10 uM by RT-PCR analysis relative to beta-actin mRNA level; format: functional
3T3-L1 [17] = assay: Increase of C/EBPbeta mRNA expression in mouse 3T3L1 cells at 10 uM by RT-PCR analysis relative to beta-actin mRNA level; format: functional
3T3-L1 [18] = assay: Increase of C/EBPalpha mRNA expression in mouse 3T3L1 cells at 10 uM by RT-PCR analysis relative to beta-actin mRNA level; format: functional
3T3-L1 [19] = assay: Increase of aP2 mRNA expression in mouse 3T3L1 cells at 10 uM by RT-PCR analysis relative to beta-actin mRNA level; format: functional
3T3-L1 [20] = assay: Increase of GLUT4 mRNA expression in mouse 3T3L1 cells at 10 uM by RT-PCR analysis relative to beta-actin mRNA level; format: functional
3T3-L1 [21] = assay: Increase of PPARgamma2 mRNA expression in mouse 3T3L1 cells at 10 uM by RT-PCR analysis relative to beta-actin mRNA level; format: functional
3T3-L1 [22] = assay: Increase of adiponectin mRNA expression in mouse 3T3L1 cells at 10 uM by RT-PCR analysis relative to beta-actin mRNA level; format: functional
3T3-L1 [23] = assay: Increase of C/EBPdelta mRNA expression in mouse 3T3L1 cells at 3 uM by RT-PCR analysis relative to beta-actin mRNA level; format: functional
3T3-L1 [24] = assay: Increase of C/EBPbeta mRNA expression in mouse 3T3L1 cells at 3 uM by RT-PCR analysis relative to beta-actin mRNA level; format: functional
3T3-L1 [25] = assay: Increase of C/EBPalpha mRNA expression in mouse 3T3L1 cells at 3 uM by RT-PCR analysis relative to beta-actin mRNA level; format: functional
3T3-L1 [26] = assay: Increase of aP2 mRNA expression in mouse 3T3L1 cells at 3 uM by RT-PCR analysis relative to beta-actin mRNA level; format: functional
3T3-L1 [27] = assay: Increase of GLUT4 mRNA expression in mouse 3T3L1 cells at 3 uM by RT-PCR analysis relative to beta-actin mRNA level; format: functional
3T3-L1 [28] = assay: Increase of PPARgamma2 mRNA expression in mouse 3T3L1 cells at 3 uM by RT-PCR analysis relative to beta-actin mRNA level; format: functional
3T3-L1 [29] = assay: Increase of adiponectin mRNA expression in mouse 3T3L1 cells at 3 uM by RT-PCR analysis relative to beta-actin mRNA level; format: functional
3T3-L1 [30] = assay: Increase of 2-deoxyglucose uptake in mouse 3T3L1 cells using 2-deoxy-D-(2,6-3H)-glucose after 2 hrs by liquid scintillation counting; format: functional, cell-based
[31] = target: T1, Peroxisome proliferator-activated receptor gamma (Homo sapiens) (UniProt P37231); assay: Agonist activity at PPARgamma (unknown origin) at 0.01 to 100 uM by nuclear receptor cofactor assay
T1 sequence (whole entry): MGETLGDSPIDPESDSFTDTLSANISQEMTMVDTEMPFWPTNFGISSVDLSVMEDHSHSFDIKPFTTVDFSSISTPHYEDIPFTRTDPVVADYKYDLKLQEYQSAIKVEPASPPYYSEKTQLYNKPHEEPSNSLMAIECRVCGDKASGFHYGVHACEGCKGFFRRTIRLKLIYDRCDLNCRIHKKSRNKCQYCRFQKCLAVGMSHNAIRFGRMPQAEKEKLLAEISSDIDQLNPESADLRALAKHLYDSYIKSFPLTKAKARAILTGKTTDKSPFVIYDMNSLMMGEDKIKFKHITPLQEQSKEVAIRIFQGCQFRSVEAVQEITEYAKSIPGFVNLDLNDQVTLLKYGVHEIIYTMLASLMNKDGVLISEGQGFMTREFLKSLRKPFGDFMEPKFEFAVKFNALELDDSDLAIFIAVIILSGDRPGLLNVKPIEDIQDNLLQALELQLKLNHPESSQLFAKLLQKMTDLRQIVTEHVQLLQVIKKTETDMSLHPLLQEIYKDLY

CC(C)COC(=O)/C=C/C=C/CC/C=C/c1ccc2c(c1)OCO2
viability at 30 µM [1]: 21.7%
Activity (3T3-L1 [2]): 21.7%
Activity (3T3-L1 [3]): 20%

CCCCNC(=O)/C=C/C=C/CC/C=C/c1ccc2c(c1)OCO2
viability at 30 µM [1]: 78.7%
viability at 10 µM [4]: 69.3%
viability at 3 µM [5]: 87.1%
viability at 1 µM [6]: 94.8%
viability at 0.3 µM [7]: 96.2%
Activity (3T3-L1 [2]): 46.2%
Activity (3T3-L1 [3]): 55.9%

CC(C)NC(=O)/C=C/C=C/CC/C=C/c1ccc2c(c1)OCO2
viability at 30 µM [1]: 102%
viability at 10 µM [4]: 96.1%
viability at 3 µM [5]: 96.6%
viability at 1 µM [6]: 94.8%
viability at 0.3 µM [7]: 95%
Activity (3T3-L1 [2]): 43.1%
Activity (3T3-L1 [3]): 39.4%

CCCNC(=O)/C=C/C=C/CC/C=C/c1ccc2c(c1)OCO2
viability at 30 µM [1]: 68.4%
viability at 10 µM [4]: 87.5%
viability at 3 µM [5]: 102%
viability at 1 µM [6]: 104%
viability at 0.3 µM [7]: 101%
Activity (3T3-L1 [2]): 18.7%
Activity (3T3-L1 [3]): 42.7%

CC(C)CNC(=O)CCCCCCCCc1ccc2c(c1)OCO2
viability at 30 µM [1]: 109%
viability at 10 µM [4]: 111%
viability at 3 µM [5]: 104%
viability at 1 µM [6]: 105%
viability at 0.3 µM [7]: 99.3%
Activity (3T3-L1 [2]): 31.9%
Activity (3T3-L1 [3]): 13.3%

CC(C)CNC(=O)/C=C/C=C/CC/C=C/c1ccc2c(c1)OCO2 [RETROFRACTAMIDE A]
viability at 30 µM [1]: 109%
viability at 10 µM [4]: 108%
viability at 3 µM [5]: 109%
viability at 1 µM [6]: 98.1%
viability at 0.3 µM [7]: 100%
Activity (3T3-L1 [2]): 22.9%
Activity (3T3-L1 [3]): 38%

OC/C=C/C=C/CC/C=C/c1ccc2c(c1)OCO2
Activity (3T3-L1 [3]): 0.6%

COC(=O)/C=C/C=C/CC/C=C/c1ccc2c(c1)OCO2
Activity (3T3-L1 [2]): 4%
Activity (3T3-L1 [3]): 4.6%

O=C(/C=C/C=C/CC/C=C/c1ccc2c(c1)OCO2)N1CCCCC1 [DEHYDROPIPERNOLINE]
Activity (3T3-L1 [3]): 21.6%

Cc1c(C)c2c(c(C)c1O)CCC(C)(COc1ccc(CC3SC(=O)NC3=O)cc1)O2 (stereo not drawn)
Activity (3T3-L1 [8]): Active

CCCCCNC(=O)/C=C/C=C/CC/C=C/c1ccc2c(c1)OCO2
Ratio (3T3-L1 [9]): 2.64
Ratio (3T3-L1 [10]): 2.91
Ratio (3T3-L1 [11]): 4.91
Ratio (3T3-L1 [12]): 3.09
Ratio (3T3-L1 [13]): 4.22
Ratio (3T3-L1 [14]): 2.57
Ratio (3T3-L1 [15]): 2.16
Ratio (3T3-L1 [16]): 1.5
Ratio (3T3-L1 [17]): 1.6
Ratio (3T3-L1 [18]): 1.27
Ratio (3T3-L1 [19]): 3.18
Ratio (3T3-L1 [20]): 3.89
Ratio (3T3-L1 [21]): 1.76
Ratio (3T3-L1 [22]): 1.3
Ratio (3T3-L1 [23]): 0.79
Ratio (3T3-L1 [24]): 0.98
Ratio (3T3-L1 [25]): 0.81
Ratio (3T3-L1 [26]): 0.86
Ratio (3T3-L1 [27]): 1.55
Ratio (3T3-L1 [28]): 0.88
Ratio (3T3-L1 [29]): 1.04
Activity (3T3-L1 [30]): Dose-dependent effect
viability at 30 µM [1]: 107%
viability at 10 µM [4]: 99%
viability at 3 µM [5]: 105%
viability at 1 µM [6]: 102%
viability at 0.3 µM [7]: 98.7%
Activity (3T3-L1 [2]): 58.8%
Activity (3T3-L1 [3]): 55.4%
Activity [31]: Active
